{
  "source": "patent US10016379B2",
  "about": "“Method of treatment for third spacing” (priority 2015, dated 2018)",
  "key": {"[1]": {"system": "third spacing of fluid refractory to sulfa/sulfonamide", "assay": "Example 2: patient case, sulfa/sulfonamide compound stopped and patient placed on ethacrynic acid", "assay_type": "in vivo", "conditions": "one patient; in one month; ethacrynic acid for a short period while stopping the sulfa/sulfonamide compound", "excerpt": "A patient who suffered from a mental impairment but knew they were allergic to sulfa/sulfonamide compounds (their blood pressure fell), had clinical evidence of edema even though the patient was on a potent sulfa/sulfonamide medication. The patient was placed on ethacrynic acid for a short period of time while stopping the sulfa/sulfonamide compound and in one month, 40 pounds of fluid was removed. In this case, the patient not only had clinical evidence of edema, they also had third spacing of fluid refractory to sulfa/sulfonamide they were on. Unfortunately the patient was lost to follow up."}, "[2]": {"system": "patient's asthma, fluid retention, fatigue, weight loss and photo dermatitis", "assay": "Example 1: patient case, furosemide stopped and replaced with ethacrynic acid", "assay_type": "in vivo", "conditions": "one patient", "excerpt": "In this case it is thought that decreasing the medications for allergies the patient was on may have contributed to the unmasking of an allergy to one of the components in the trade name compound."}},
  "data": [
    {"smiles": "C=C(CC)C(=O)c1ccc(OCC(=O)O)c(Cl)c1Cl", "note": "[ethacrynic acid]", "values": [
      {"measurement": "fluid removed", "setting": "[1]", "value": 40, "unit": "pounds"},
      {"measurement": "laboratory studies", "setting": "[2]; after replacing furosemide with ethacrynic acid", "value": "resolution of pyuria"},
      {"measurement": "asthma, fluid retention, fatigue, weight loss and photo dermatitis", "setting": "[2]; after stopping furosemide and replacing it with ethacrynic acid", "value": "improve within one weeks-time"},
      {"measurement": "use of other medications for asthma, myalgia, dyspepsia and other symptoms", "setting": "[2]; during ethacrynic acid treatment", "value": "less use or even elimination of other medications"},
      {"measurement": "tolerability (reason the patient could not continue the medication)", "setting": "[2]; trade name compound", "value": "adverse reaction to one of the constituents in the trade name compound"}
    ]}
  ]
}
